Experiments:
Test in all cases: Checkerboard MIC assay, FICI
Details in all cases: combination with Compound 1
[1] = test system: R. microsporus ATCC 14050; assay type: cell-based, Rhizopus microsporus
Text: (§1) The following assay was used to determine the minimum inhibitory concentration (MIC) and fractional inhibitory concentration index (FICI) for combinations of an antifungal agent and a glycopeptide antibacterial agent. This assay and methods for calculating FICI are well known in the art. See, for example, Eliopoulos, E. G. and R. Moellering, Jr. “Antimicrobial Combinations” in Antibiotics in Laboratory Medicine, edited by V. Lorian, 4th Ed., Williams & Wilkins, Baltimore, MD, pp. 330-396 (1996); […] et al., Antimicrobial Agents and Chemotherapy 47(4):1416-1418 (2003); or […] et al., Antimicrobial Agents and Chemotherapy 46(10):3323-3326 (2002). […] The MIC of the glycopeptide antibacterial agent determined from this experiment was used in FIC calculations. […]

[2] = test system: M. circinelloides ATCC 26759; assay type: cell-based, Mucor circinelloides
Text: as §1

G. candidum ATCC 62231 = assay type: cell-based, Geotricium candidum
Text: as §1

A. fumigatus ATCC 14110 = assay type: cell-based, Aspergillus fumigatus
Text: as §1

| Structure (SMILES) | FICI [1] | FICI [2] | FICI (G. candidum ATCC 62231) | FICI (A. fumigatus ATCC 14110) |
| --- | --- | --- | --- | --- |
| C[C@@H]1[C@H](O)[C@@H](C)/C=C/C=C/C=C/C=C/C=C/C=C/C=C/[C@H](O[C@@H]2O[C@H](C)[C@@H](O)[C@H](N)[C@@H]2O)C[C@@H]2O[C@](O)(C[C@@H](O)C[C@@H](O)[C@H](O)CC[C@@H](O)C[C@@H](O)CC(=O)O[C@H]1C)C[C@H](O)[C@H]2C(=O)O [Amphotericin B] | 0.27 | 0.26 | 0.63 | 0.31 |
| C[C@@H]1[C@H](O)[C@@H](C)/C=C/C=C/CC/C=C/C=C/C=C/C=C/C(O[C@H]2O[C@H](C)[C@@H](O)[C@H](N)[C@@H]2O)CC2O[C@](O)(CC(O)C(O)CCC(O)CC(O)CC(O)CC(=O)O[C@H]1C)CC(O)C2C(=O)O (some centres unmarked) [Nystatin] | 0.51 | 0.28 | 0.31 | 1.25 |

— patent US7521418B2, “Use of a polyene macrolide antifungal agent in combination with a glycopeptide antibacterial agent” (Theravance, Inc., priority 2003, dated 2009)
